Data from ChEMBL document CHEMBL5230122, “Natural products and other inhibitors of F1FO ATP synthase” (Eur J Med Chem, 2020).
Values belong to the compound of their own block, whether it stands above or below them.

Tests used:
Assay type in all cases: functional, cell-based
[1] = Anticancer activity against rat Ad12-3Y1-Z13 cells assessed as reduction in cell viability incubated for 3 days by MTT assay; conditions: Ad12-3Y1-Z13, 72 h
[2] = Anticancer activity against human ACC-MESO-1 cells assessed as reduction in cell viability incubated for 72 hrs by WST-8 assay; conditions: ACC-MESO-1, 72 h
[3] = Anticancer activity against rat SV-3Y1-C66 cells assessed as reduction in cell viability incubated for 3 days by MTT assay; conditions: SV-3Y1-C66, 72 h
[4] = Anticancer activity against rat Ad12-3Y1-W5 cells assessed as reduction in cell viability incubated for 3 days by MTT assay; conditions: Ad12-3Y1-W5, 72 h
[5] = Anticancer activity against rat E1A-3Y1-2 cells assessed as reduction in cell viability incubated for 3 days by MTT assay; conditions: E1A-3Y1-2, 72 h
[6] = Anticancer activity against rat E1A-3Y1-3 cells assessed as reduction in cell viability incubated for 3 days by MTT assay; conditions: E1A-3Y1-3, 72 h
[7] = Anticancer activity against rat Ad12-3Y1-Z19 cells assessed as reduction in cell viability incubated for 3 days by MTT assay; conditions: Ad12-3Y1-Z19, 72 h
[8] = Anticancer activity against rat SR-3Y1-1 cells assessed as reduction in cell viability incubated for 3 days by MTT assay; conditions: SR-3Y1-1, 72 h
[9] = test system: Jurkat; experiment: Anticancer activity against human Jurkat cells assessed as reduction in cell viability incubated for 72 hrs by WST-8 assay
[10] = Anticancer activity against rat HR-3Y1-2 cells assessed as reduction in cell viability incubated for 3 days by MTT assay; conditions: HR-3Y1-2, 72 h
[11] = Anticancer activity against rat HR-3Y1-1 cells assessed as reduction in cell viability incubated for 3 days by MTT assay; conditions: HR-3Y1-1, 72 h
[12] = Anticancer activity against rat SR-3Y1-2 cells assessed as reduction in cell viability incubated for 3 days by MTT assay; conditions: SR-3Y1-2, 72 h
[13] = Anticancer activity against rat SR-3Y1-3 cells assessed as reduction in cell viability incubated for 3 days by MTT assay; conditions: SR-3Y1-3, 72 h
[14] = Anticancer activity against rat HR-3Y1-3 cells assessed as reduction in cell viability incubated for 3 days by MTT assay; conditions: HR-3Y1-3, 72 h
[15] = Anticancer activity against rat Ad12-3Y1-Z11 cells assessed as reduction in cell viability incubated for 3 days by MTT assay; conditions: Ad12-3Y1-Z11, 72 h
[16] = test system: SK-OV-3; experiment: Anticancer activity against human SK-OV-3 cells assessed as reduction in cell viability incubated for 72 hrs by WST-8 assay; conditions: SK-OV-3, 72 h
[17] = Anticancer activity against rat E1A-3Y1-1 cells assessed as reduction in cell viability incubated for 3 days by MTT assay; conditions: E1A-3Y1-1, 72 h
[18] = test system: HeLa; experiment: Anticancer activity against human HeLa cells assessed as reduction in cell viability incubated for 72 hrs by MTT assay
[19] = test system: MDA-MB-231; experiment: Anticancer activity against human MDA-MB-231 cells assessed as reduction in cell viability incubated for 72 hrs by MTT assay; conditions: MDA-MB-231, 72 h
[20] = test system: PaTu 8988t; experiment: Anticancer activity against human PaTu 8988t cells assessed as reduction in cell viability incubated for 72 hrs by MTT assay
[21] = test system: A549; experiment: Anticancer activity against human A549 cells assessed as reduction in cell viability incubated for 72 hrs by MTT assay; conditions: A549, 72 h
[22] = test system: MCF7; experiment: Anticancer activity against human MCF7 cells assessed as reduction in cell viability incubated for 72 hrs by MTT assay; conditions: MCF7, 72 h
[23] = test system: P388; experiment: Anticancer activity against mouse P388 cells assessed as reduction in cell viability incubated for 96 hrs by MTT assay; conditions: P388, 96 h
[24] = test system: P388; experiment: Anticancer activity against mouse P388 cells assessed as reduction in cell viability incubated for 48 hrs by sulforhodamine B (SRB) assay; conditions: P388, 48 h
[25] = test system: MCF7; experiment: Anticancer activity against human MCF7 cells assessed as reduction in cell viability incubated for 48 hrs by sulforhodamine B (SRB) assay; conditions: MCF7, 48 h
[26] = test system: MCF7; experiment: Antitumor activity against human MCF7 cells assessed as reduction in cell viability incubated for 48 hrs by MTT assay; conditions: MCF7, 48 h
[27] = test system: HCT-116; experiment: Antitumor activity against human HCT-116 cells assessed as reduction in cell viability incubated for 48 hrs by MTT assay; conditions: HCT-116, 48 h
[28] = Antitumor activity against mouse RIL-175 cells assessed as reduction in cell viability incubated for 48 hrs by MTT assay; conditions: RIL-175, 48 h
[29] = test system: A549; experiment: Antitumor activity against human A549 cells assessed as reduction in cell viability incubated for 48 hrs by MTT assay; conditions: A549, 48 h
[30] = test system: Huh-7; experiment: Antitumor activity against human Huh-7 cells assessed as reduction in cell viability incubated for 48 hrs by MTT assay; conditions: Huh-7, 48 h

IC50 [9]: 12.5 µM
IC50 [16]: 38 µM
Compound: CC[C@H](C)[C@@H]1NC(=O)[C@H](NC(=O)[C@H](C)NC(=S)[C@H](C)NC(=S)[C@H](C)NC(=S)[C@H](C)NC(=S)[C@H](CCSC)NC(=S)[C@@H](NC(=O)C(C)(O)CC(C)=O)C(C)C)CS/C=C\NC(=O)[C@H](C(O)c2cn(C)c[n+]2C)NC(=O)[C@H](CC(C)C)NC(=O)[C@H](C)NC1=O (stereo not given in full)
IC50 [1]: 0.0039 mg/L
IC50 [2]: 27.8 µM
IC50 [3]: 0.46 mg/L
IC50 [4]: 0.0039 mg/L
IC50 [5]: 0.032 mg/L
IC50 [6]: 0.032 mg/L
IC50 [7]: 0.0039 mg/L
IC50 [8]: 0.63 mg/L
IC50 [10]: 0.2 mg/L
IC50 [11]: 0.2 mg/L
IC50 [12]: 0.63 mg/L
IC50 [13]: 0.63 mg/L
IC50 [14]: 0.2 mg/L
IC50 [15]: 0.0039 mg/L
IC50 [17]: 0.032 mg/L

IC50 [18]: 0.05 µM
IC50 [19]: 0.072 µM
IC50 [21]: 0.048 µM
IC50 [22]: 0.059 µM
Compound: CCC(C)[C@H](NC(=S)[C@@H](NC(=O)C(C)O)C(C)C)C(=O)NCC(=O)N[C@@H](Cc1ccccc1O)C(=S)N[C@@H](C)C(=S)N[C@H](C(=O)N[C@H]1C(=O)N[C@@H]([C@@H](C)CC)C(=O)N[C@@H](C)C(=O)N[C@@H](C(C)C)C(=O)N[C@@H](Cc2cn(C)c[n+]2C)C(=O)N/C=C\SC1C)C(C)C (stereo not given in full)
IC50 [20]: 0.065 µM

IC50 [23]: 0.00051 µM
IC50 [24]: 0.01 µM
IC50 [25]: 0.01 µM
Compound: CC/C(C)=C(\NC(=O)[C@@H](NC(=O)CC(=O)[C@@H](C)CC(C)C)[C@](C)(O)CC)C(=O)N[C@@H](C)C(=O)N/C(C(=O)N[C@@H](C(=O)N[C@@H](C(=O)N[C@@H](C(=O)N[C@H](C(=O)N/C(C(=O)N[C@H](C)C(=O)N[C@@H](C(=O)N[C@H](C(=O)NC(C(=O)N[C@H](CN(C)C)C(C)C)=C(C)C)C(C)C)C(C)C)=C(\C)CC)C(C)(C)O)C(C)(C)O)[C@@H](C)CC)C(C)C)=C(\C)CC

IC50 [26]: 0.48 µM
IC50 [27]: 0.176 µM
IC50 [29]: 1.16 µM
IC50 [30]: 0.141 µM
Compound: CSCC[C@H](NC(=S)[C@@H](NC(=O)C(C)=O)C(C)C)C(=S)N[C@@H](C)C(=O)N[C@@H](C)C(=S)N[C@@H](C)C(=S)N[C@@H](C)C(=O)N[C@H]1C(=O)N[C@@H](C(C)C)C(=O)N[C@@H](C)C(=O)N[C@@H](Cc2ccccc2)C(=O)N[C@@H](C(O)c2cn(C)c[n+]2C)C(=O)N/C=C\SC1C (stereo not given in full)
IC50 [28]: 0.157 µM
